US8492374B2, “Azaazulene compounds” (Industrial Technology Research Institute, priority 2009, dated 2013)

Columns and labels:
KDR kinase = target: T1, KDR kinase (Homo sapiens, UniProt P35968); test: KDR kinase DELFIA assay (HTScan VEGFR-2 Kinase Assay Kit); type: biochemical; settings: 20 uM ATP
T1 construct: human VEGFR-2 (Val789-Val1356); GST (N); purchased Cell Signaling Technology HTScan VEGFR-2 Kinase Assay Kit; host or cells: baculovirus expression system
Method: Azaazulene Compounds of this invention were treated for their efficacy in inhibiting activities of FLT-3, c-KIT and KDR kinases by biochemical DELFIA (Dissociation Enhanced Lanthanide FIA) assays according to the procedure described below. The assays were conducted by, Division of Cell Engineering, Biomedical Engineering Research Laboratories, Industrial Technology Research Institute, Bldg. 53, 195, sec. 4, Chung Hsing Rd. Chutung, Hsinchu, Taiwan 310, R.O.C.
The KDR assay was conducted following the protocol described in Protocol for HTScan™ VEGFR-2 Kinase Assay Kit (Cell Signaling Technology™).

[1] = system: MV4-11 (FLT3-ITD) subcutaneous tumor xenograft; test: MV4-11 subcutaneous tumor xenograft model; type: in vivo, BALB/c nude mice; settings: for tumor complete regression of all mouse: oral gavage
Method: The procedures for establishing tumor xenografts and the dosing of B26 were carried out and accordance with ITRI institutional animal care and use committee in an IACUC. Female BALB/c nude mice (6 to 8 weeks old) were purchased from BioLASCO Co., Ltd. (Taipei, Taiwan). Female BALB/c nude mice were implanted subcutaneously in the right flank with 1×10^7 MV4-11 (FLT3-ITD) cells per mice. Treatments were initiated when tumors were 150 to 200 mm^3 in size. Mice were randomly assigned into cohorts (typically 4 mice per group for efficacy studies). B26 (50 and 150 mg/kg, bid.) and vehicle were given via oral gavage for 14 days from the 16th day after inoculation. Tumor volumes were assessed everyday and body weights were assessed two times weekly. Caliper measurements of tumors were converted into mean tumor volume using the formula: 0.5×[length×(width)^2].
Compound B26 of this invention is a novel and potent FLT3 inhibitor with promising anti-tumor and anti-leukemia activity.

FLT-3 kinase = target: T2, FLT-3 kinase (Homo sapiens, UniProt P36888); test: FLT-3 kinase DELFIA assay (HTScan FLT-3 Kinase Assay Kit); type: biochemical; settings: 20 uM ATP
T2 construct: human FLT-3 (Arg571-Ser993); GST (N); purchased Cell Signaling Technology HTScan FLT-3 Kinase Assay Kit; host or cells: baculovirus expression system
T2 sequence (P36888 571-993): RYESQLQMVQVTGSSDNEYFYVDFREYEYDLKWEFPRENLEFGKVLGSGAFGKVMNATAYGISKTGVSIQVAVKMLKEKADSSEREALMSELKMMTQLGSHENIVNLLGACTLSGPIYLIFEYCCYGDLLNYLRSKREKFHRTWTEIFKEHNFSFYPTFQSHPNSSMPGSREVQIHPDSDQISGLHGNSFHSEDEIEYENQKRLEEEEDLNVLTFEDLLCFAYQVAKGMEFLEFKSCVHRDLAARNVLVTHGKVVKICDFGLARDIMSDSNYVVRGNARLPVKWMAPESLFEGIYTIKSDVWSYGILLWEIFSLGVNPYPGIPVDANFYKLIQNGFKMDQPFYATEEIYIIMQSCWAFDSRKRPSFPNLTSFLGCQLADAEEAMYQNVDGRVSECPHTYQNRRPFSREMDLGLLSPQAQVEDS

KIT = KIT (Homo sapiens, UniProt P10721); test: Kinase panel assay (SelectScreen Kinase Profiling, Invitrogen); type: biochemical; settings: 1000 nM of compound B26
Method: (§1) The kinase panel assay of compound B26 of this invention was performed by SelectScreen® Kinase Profiling Services of Invitrogen. The inhibitory effects of 1000 nM of compound B26 against various kinases whom shown >50% inhibitory effects are summarized in following Table 5.

NTRK2 (TRKB) = NTRK2 (TRKB) (Homo sapiens, UniProt Q16620); test: as above; type: biochemical; settings: 1000 nM of compound B26
Method: as §1

FLT4 (VEGFR3) = FLT4 (VEGFR3) (Homo sapiens, UniProt P35916); test: as above; type: biochemical; settings: 1000 nM of compound B26
Method: as §1

LCK = LCK (Homo sapiens, UniProt P06239); test: as above; type: biochemical; settings: 1000 nM of compound B26
Method: as §1

AMPK A1/B1/G1 = AMPK A1/B1/G1 (Homo sapiens, UniProt Q13131); test: as above; type: biochemical; settings: 1000 nM of compound B26
Method: as §1

FLT3 D835Y = FLT3 D835Y (Homo sapiens, UniProt P36888, D835Y); test: as above; type: biochemical; settings: 1000 nM of compound B26
Method: as §1

MAP4K5 (KHS1) = MAP4K5 (KHS1) (Homo sapiens, UniProt Q9Y4K4); test: as above; type: biochemical; settings: 1000 nM of compound B26
Method: as §1

LYN B = LYN B (Homo sapiens, UniProt P07948); test: as above; type: biochemical; settings: 1000 nM of compound B26
Method: as §1

PHKG1 = PHKG1 (Homo sapiens, UniProt Q16816); test: as above; type: biochemical; settings: 1000 nM of compound B26
Method: as §1

FGFR3 = FGFR3 (Homo sapiens, UniProt P22607); test: as above; type: biochemical; settings: 1000 nM of compound B26
Method: as §1

FGFR2 = FGFR2 (Homo sapiens, UniProt P21802); test: as above; type: biochemical; settings: 1000 nM of compound B26
Method: as §1

SRC N1 = SRC N1 (Homo sapiens, UniProt P12931); test: as above; type: biochemical; settings: 1000 nM of compound B26
Method: as §1

[2] = system: MV4-11 (FLT3-ITD) cell line; test: In vitro cell activity assay (MTT cell viability, 72 hours); type: cell-based; settings: Homo sapiens, 72 hours at 37° C., 10,000 cells per well, read-out: IC50 against MV4-11
In short: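 Compound serial dilutions applied to MV4-11 (FLT3-ITD) cells, 10,000 per well, for 72 hours at 37° C. Viability by MTT, formazan dissolved in DMSO, absorbance at 600 nm; IC50 by nonlinear regression as concentration halving absorbance versus untreated cells.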

T1 sequence (P35968 789-1356): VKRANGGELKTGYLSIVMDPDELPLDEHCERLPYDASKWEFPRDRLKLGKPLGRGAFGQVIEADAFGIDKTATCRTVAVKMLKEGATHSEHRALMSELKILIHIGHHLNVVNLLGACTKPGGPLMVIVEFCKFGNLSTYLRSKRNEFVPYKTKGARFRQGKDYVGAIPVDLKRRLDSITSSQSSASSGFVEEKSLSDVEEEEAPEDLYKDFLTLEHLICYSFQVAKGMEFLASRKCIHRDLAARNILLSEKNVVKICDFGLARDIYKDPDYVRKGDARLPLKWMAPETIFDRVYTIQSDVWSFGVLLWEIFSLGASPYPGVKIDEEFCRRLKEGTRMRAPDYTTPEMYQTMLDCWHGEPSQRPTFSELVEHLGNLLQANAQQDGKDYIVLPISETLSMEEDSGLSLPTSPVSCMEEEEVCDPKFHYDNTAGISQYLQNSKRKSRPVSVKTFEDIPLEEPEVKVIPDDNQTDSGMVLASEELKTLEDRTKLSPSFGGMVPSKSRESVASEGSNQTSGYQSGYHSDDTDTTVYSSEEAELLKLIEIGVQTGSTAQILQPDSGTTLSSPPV
Chain of FGFR2 (P21802 22-821): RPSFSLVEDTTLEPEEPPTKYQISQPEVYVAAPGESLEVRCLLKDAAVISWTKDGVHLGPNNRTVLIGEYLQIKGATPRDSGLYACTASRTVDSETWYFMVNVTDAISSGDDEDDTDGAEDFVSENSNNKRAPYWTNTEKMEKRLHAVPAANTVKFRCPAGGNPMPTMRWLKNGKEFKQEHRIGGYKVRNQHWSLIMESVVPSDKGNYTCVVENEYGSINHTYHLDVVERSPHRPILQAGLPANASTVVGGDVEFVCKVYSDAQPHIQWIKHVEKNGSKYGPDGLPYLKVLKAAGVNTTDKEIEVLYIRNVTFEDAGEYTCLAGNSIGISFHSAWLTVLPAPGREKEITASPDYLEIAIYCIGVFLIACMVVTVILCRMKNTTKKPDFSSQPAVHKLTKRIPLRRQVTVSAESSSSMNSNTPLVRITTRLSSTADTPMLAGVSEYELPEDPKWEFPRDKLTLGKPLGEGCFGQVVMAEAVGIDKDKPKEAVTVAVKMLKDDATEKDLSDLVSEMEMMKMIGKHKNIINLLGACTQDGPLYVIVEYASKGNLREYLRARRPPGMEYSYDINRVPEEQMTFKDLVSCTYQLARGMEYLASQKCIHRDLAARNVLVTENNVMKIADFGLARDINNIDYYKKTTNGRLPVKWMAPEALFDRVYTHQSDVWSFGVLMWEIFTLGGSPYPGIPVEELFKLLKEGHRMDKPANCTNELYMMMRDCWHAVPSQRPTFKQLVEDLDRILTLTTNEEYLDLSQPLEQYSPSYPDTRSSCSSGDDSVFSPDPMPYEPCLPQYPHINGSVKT
Chain of FLT4 (VEGFR3) (P35916 25-1363): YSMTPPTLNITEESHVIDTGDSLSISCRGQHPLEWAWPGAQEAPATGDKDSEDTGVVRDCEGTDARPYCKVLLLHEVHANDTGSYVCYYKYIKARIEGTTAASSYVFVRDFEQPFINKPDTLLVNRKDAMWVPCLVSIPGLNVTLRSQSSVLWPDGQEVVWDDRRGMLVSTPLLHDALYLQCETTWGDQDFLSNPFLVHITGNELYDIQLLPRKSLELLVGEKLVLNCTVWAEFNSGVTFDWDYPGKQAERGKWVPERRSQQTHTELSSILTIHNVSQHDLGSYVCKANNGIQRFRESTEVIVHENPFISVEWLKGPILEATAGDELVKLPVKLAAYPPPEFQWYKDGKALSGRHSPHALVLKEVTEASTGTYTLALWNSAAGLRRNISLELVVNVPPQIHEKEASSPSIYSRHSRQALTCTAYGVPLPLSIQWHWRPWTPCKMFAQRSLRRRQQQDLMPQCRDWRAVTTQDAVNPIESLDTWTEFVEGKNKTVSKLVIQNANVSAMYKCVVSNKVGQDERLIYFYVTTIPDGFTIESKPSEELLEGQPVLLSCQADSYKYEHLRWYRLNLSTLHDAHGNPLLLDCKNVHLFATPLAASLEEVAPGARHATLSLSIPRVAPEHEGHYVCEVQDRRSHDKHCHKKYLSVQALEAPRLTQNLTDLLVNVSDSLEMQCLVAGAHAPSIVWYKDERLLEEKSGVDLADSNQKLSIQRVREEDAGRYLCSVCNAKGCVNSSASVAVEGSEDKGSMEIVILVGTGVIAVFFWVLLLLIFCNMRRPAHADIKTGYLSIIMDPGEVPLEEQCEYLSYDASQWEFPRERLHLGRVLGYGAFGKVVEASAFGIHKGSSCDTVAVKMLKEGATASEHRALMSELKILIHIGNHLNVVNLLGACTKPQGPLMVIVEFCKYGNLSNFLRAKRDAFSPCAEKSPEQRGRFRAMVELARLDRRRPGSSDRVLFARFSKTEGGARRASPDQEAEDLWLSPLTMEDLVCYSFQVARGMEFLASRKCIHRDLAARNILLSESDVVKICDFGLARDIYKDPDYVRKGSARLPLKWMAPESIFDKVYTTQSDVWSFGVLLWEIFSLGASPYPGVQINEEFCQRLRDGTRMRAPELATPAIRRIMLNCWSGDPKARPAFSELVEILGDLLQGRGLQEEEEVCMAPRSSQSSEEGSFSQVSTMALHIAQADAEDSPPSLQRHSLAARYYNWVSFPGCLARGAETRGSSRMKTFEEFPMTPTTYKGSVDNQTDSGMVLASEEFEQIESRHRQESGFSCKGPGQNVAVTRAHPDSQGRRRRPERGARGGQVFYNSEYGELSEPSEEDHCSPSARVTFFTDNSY
Chain of LYN B (P07948 1-491 isoform P07948-2): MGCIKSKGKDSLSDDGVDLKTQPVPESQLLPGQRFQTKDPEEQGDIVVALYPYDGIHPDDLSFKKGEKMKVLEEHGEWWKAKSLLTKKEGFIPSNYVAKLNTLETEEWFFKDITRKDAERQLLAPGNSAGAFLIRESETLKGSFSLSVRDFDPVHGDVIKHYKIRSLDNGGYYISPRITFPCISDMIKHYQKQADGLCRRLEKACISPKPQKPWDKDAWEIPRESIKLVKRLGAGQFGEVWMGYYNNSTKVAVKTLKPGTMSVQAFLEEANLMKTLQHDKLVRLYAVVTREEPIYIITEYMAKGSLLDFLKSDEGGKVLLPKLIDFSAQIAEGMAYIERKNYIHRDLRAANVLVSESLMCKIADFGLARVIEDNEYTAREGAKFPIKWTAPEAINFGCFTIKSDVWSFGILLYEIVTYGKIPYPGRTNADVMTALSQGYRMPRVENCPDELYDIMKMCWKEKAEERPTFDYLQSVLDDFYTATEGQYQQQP
Chain of MAP4K5 (KHS1) (Q9Y4K4 whole entry): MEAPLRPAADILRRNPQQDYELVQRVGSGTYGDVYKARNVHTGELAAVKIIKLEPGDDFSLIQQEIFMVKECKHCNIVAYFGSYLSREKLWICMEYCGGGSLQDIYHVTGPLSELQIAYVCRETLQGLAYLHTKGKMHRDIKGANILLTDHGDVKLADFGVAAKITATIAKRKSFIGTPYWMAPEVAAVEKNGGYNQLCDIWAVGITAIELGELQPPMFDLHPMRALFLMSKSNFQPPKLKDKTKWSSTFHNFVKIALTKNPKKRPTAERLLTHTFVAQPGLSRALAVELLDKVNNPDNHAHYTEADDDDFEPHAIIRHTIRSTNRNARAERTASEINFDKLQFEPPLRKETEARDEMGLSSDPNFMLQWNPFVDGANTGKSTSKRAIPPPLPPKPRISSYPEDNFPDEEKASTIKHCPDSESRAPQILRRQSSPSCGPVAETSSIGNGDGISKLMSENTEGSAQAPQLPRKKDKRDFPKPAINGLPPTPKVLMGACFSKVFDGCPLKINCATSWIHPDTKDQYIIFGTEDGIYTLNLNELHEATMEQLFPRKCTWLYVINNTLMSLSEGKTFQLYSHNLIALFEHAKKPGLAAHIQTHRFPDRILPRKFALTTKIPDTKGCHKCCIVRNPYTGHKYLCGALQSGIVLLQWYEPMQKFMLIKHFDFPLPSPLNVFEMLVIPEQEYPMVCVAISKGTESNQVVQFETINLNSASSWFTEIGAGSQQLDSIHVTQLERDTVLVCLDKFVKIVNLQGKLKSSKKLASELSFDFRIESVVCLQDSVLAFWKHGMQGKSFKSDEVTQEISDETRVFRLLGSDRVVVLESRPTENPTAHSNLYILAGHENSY
Chain of SRC N1 (P12931 1-542 isoform P12931-2): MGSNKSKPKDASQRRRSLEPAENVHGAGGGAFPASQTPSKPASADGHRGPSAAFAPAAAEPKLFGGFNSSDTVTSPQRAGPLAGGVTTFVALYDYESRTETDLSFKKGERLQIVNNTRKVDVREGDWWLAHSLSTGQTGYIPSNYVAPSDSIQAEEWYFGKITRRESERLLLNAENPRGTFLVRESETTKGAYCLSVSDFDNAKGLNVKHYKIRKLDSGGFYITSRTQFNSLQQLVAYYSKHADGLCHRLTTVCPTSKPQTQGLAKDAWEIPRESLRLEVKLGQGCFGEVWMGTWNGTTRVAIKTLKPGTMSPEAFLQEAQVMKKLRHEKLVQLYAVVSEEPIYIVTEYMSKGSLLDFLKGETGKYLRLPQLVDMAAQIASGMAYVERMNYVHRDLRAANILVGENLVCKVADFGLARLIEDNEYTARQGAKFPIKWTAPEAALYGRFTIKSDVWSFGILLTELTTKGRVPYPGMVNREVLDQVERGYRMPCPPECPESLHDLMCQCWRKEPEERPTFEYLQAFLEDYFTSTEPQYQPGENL
Chain of PHKG1 (Q16816 whole entry): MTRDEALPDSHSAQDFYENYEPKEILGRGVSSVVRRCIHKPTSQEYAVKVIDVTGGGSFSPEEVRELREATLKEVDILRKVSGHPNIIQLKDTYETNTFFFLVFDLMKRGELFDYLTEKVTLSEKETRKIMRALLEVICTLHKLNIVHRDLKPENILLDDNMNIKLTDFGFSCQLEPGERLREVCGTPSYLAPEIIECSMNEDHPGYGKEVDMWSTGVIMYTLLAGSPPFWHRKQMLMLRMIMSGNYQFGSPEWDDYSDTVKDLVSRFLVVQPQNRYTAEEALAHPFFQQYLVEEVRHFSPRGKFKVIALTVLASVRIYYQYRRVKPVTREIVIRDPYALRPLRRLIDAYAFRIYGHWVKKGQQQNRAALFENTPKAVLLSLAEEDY

- inhibition at 0.1 µM (KDR kinase; 0.1 uM compound, read-out: Kinases inhibitory activities against KDR kinase, 0.1 uM): 71.3%
- inhibition at 1 µM (KDR kinase; 1 uM compound, read-out: Kinases inhibitory activities against KDR kinase, 1 uM): 96.9%
- inhibition at 0.1 µM (FLT-3 kinase; 0.1 uM compound): 45.6%
- inhibition at 1 µM (FLT-3 kinase; 1 uM compound): 91.2%
- inhibition at 1 µM (KIT): 61%
- inhibition at 1 µM (NTRK2 (TRKB)): 84%
- inhibition at 1 µM (FLT4 (VEGFR3)): 50%
- inhibition at 1 µM (LCK): 63%
- inhibition at 1 µM (AMPK A1/B1/G1): 88%
- inhibition at 1 µM (FLT3 D835Y): 98%
- inhibition at 1 µM (MAP4K5 (KHS1)): 60%
- inhibition at 1 µM (LYN B): 51%
- inhibition at 1 µM (PHKG1): 53%
- inhibition at 1 µM (FGFR3): 62%
- inhibition at 1 µM (FGFR2): 48%
- inhibition at 1 µM (SRC N1): 52%
- IC50 [2]: 21.1 nM
Compound: CN1CCN(c2ccc3[nH]c(-c4c5cccccc-5[nH]c4=O)nc3c2)CC1 [Compound B26]
- tumor complete regression of all mouse ([1]; 50 mg/kg (bid)): 9 days
- tumor complete regression of all mouse ([1]; 150 mg/kg (bid)): 7 days
- antitumor effect ([1]; oral, 50 or 150 mg/kg bid for 14 days): potent and significant antitumor effect in a dose-dependent manner
